The assay has as its target T1, CCR2 (Homo sapiens, UniProt P41597).
T1 construct: host or cells: THP-1 cells
T1 sequence (P41597 1-360 isoform P41597-2): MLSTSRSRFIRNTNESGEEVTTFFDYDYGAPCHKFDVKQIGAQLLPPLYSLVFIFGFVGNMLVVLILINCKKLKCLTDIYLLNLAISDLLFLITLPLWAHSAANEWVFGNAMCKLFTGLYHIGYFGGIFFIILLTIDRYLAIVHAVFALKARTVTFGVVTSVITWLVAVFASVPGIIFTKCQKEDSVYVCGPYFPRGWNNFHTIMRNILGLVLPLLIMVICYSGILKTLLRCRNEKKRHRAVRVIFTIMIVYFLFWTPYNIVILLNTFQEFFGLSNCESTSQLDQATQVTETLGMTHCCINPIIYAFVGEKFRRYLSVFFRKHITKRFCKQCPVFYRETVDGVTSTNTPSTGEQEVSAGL
As to the kind of experiment: MCP-1 Receptor Binding Assay in THP-1 Cells. The conditions noted are these: for inhibition at 25 µM: test concentration of 25 μM, given where an IC50 value was not obtained, read-out: Inhibition of MCP-1 Binding, percent inhibition; for IC50: THP-1 cells, 0.5 nM 125I labeled MCP-1, 2 hours at 30° C., read-out: Inhibition of MCP-1 Binding IC50. The method, then: THP-1 cells were obtained from American Type Culture Collection (Manassas, Va., USA). The THP-1 cells were grown in RPMI-1640 supplemented with 10% fetal bovine serum in a humidified 5% CO2 atmosphere at 37° C. The cell density was maintained […].
THP-1 cells were incubated with 0.5 nM ^125, labeled MCP-1 (Perkin-Elmer Life Sciences, Inc. Boston, Mass.) in the presence of varying concentrations of either unlabeled MCP-1 (R & D Systems, Minneapolis, Minn.) or test compound for 2 hours at 30° C. in a 96 well plate. Cells were then harvested onto a filter plate, dried, and 20 μL of Microscint 20 was added to each well. Plates were counted in a TopCount NXT, Microplate Scintillation & Luminescence Counter (Perkin-Elmer Life Sciences, Inc. Boston, Mass.). Blank values (buffer only) were subtracted from all values and drug treated values were compared to vehicle treated values. 1 μM cold MCP-1 was used for nonspecific binding.
Table 1 lists IC50 values for inhibition of MCP-1 binding to CCR2 obtained for test compounds of the invention.

Structures are written as SMILES.

As to `CCOC(=O)C(CC1CCN(C(=O)C=Cc2cc(F)cc(F)c2)CC1)N1CCC(c2c[nH]c3ccccc23)CC1` (centres unmarked) [Compound 51, 3-{1-[3-(3,5-difluoro-phenyl)-acryloyl]-piperidin-4-yl}-2-[4-(1H-indol-3-yl)-piperidin-1-yl]-propionic acid ethyl ester], the inhibition – broadly, the relative decrease from the control value, in per cent – at 25 µM turned out to be 48%.

`CCOC(=O)C(CC1CCN(C(=O)Nc2ccc(Cl)c(Cl)c2)CC1)N1CCC(c2c[nH]c3ccccc23)CC1` (centres unmarked) [Compound 52, 3-[1-(3,4-dichloro-phenylcarbamoyl)-piperidin-4-yl]-2-[4-(1H-indol-3-yl)-piperidin-1-yl]-propionic acid ethyl ester]: the inhibition at 25 µM was 53%.

With `Cc1cccc(C=CC(=O)N2CCC(CC(C(=O)O)N3CCC(c4c[nH]c5ccccc45)CC3)CC2)c1` (centres unmarked) [Compound 53, 2-[4-(1H-indol-3-yl)-piperidin-1-yl]-3-[1-(3-m-tolyl-acryloyl)-piperidin-4-yl]-propionic acid], the inhibition at 25 µM worked out at 48%.

For the compound `O=C(/C=C/c1cc(F)cc(F)c1)N1CCC(CC(CO)N2CCC(c3c[nH]c4ccccc34)CC2)CC1` (centres unmarked) [Compound 54], the IC50 (in general, the concentration needed to halve the response being measured) worked out at 5.6 µM.

Take `O=C(/C=C/c1cc(F)c(F)c(F)c1)N1CCC(CC(CO)N2CCC(c3c[nH]c4ccccc34)CC2)CC1` (centres unmarked) [Compound 55]: the IC50 was 3.5 µM.

For the compound `O=C(/C=C/c1ccc(Cl)c(Cl)c1)N1CCC(CC(CO)N2CCC(c3c[nH]c4ccccc34)CC2)CC1` (centres unmarked) [Compound 56], the IC50 came to 5.7 µM.

`Cc1cccc(/C=C/C(=O)N2CCC(CC(CO)N3CCC(c4c[nH]c5ccccc45)CC3)CC2)c1` (centres unmarked) [Compound 57]: the IC50 was found to be 2.6 µM.

`OCC(CC1CCN(C(=S)Nc2cccc(Br)c2)CC1)N1CCC(c2c[nH]c3ccccc23)CC1` (centres unmarked) [Compound 59, 4-{3-hydroxy-2-[4-(1H-indol-3-yl)-piperidin-1-yl]-propyl}-piperidine-1-carbothioic acid (3-bromo-phenyl)-amide]: the IC50 worked out at 6.1 µM.

As for `O=C(O)C(CC1CCN(C(=O)Nc2ccc(Cl)c(Cl)c2)CC1)N1CCC(c2c[nH]c3ccccc23)CC1` (centres unmarked) [Compound 62, 3-[1-(3,4-dichloro-phenylcarbamoyl)-piperidin-4-yl]-2-[4-(1H-indol-3-yl)-piperidin-1-yl]-propionic acid], the inhibition at 25 µM was 55%.

`CC(C)(C)OC(=O)N1CCC(C(O)CN2CCC(c3c[nH]c4ccc(NS(C)(=O)=O)cc34)CC2)CC1` (centres unmarked) [Compound 63, 4-{1-hydroxy-2-[4-(5-methanesulfonylamino-1H-indol-3-yl)-piperidin-1-yl]-ethyl}-piperidine-1-carboxylic acid tert-butyl ester]: the inhibition at 25 µM stood at 46%.

With `COc1ccc(C2CCN(CC(=O)C3CCN(C(=O)/C=C/c4cc(F)c(F)c(F)c4)CC3)CC2)cc1` [Compound 64, 1-(4-{2-[4-(4-methoxy-phenyl)-piperidin-1-yl]-acetyl}-piperidin-1-yl)-3-(3,4,5-trifluoro-phenyl)-propenone], the IC50 came to 1.3 µM.

`COc1ccc(C2CCN(CC(NC(=O)N(C)C)C3CCN(C(=O)C=Cc4cc(F)c(F)c(F)c4)CC3)CC2)cc1` (centres unmarked) [Compound 68, 3-(2-[4-(4-methoxy-phenyl)-piperidin-1-yl]-1-{1-[3-(3,4,5-trifluoro-phenyl)-acryloyl]-piperidin-4-yl}-ethyl)-1,1-dimethyl-urea]: the IC50 turned out to be 2.7 µM.

For the compound `O=C(OCc1ccccc1)N1CCC(O)(C(O)CN2CCC(c3c[nH]c4ccccc34)CC2)CC1` (centres unmarked) [Compound 69, 4-hydroxy-4-{1-hydroxy-2-[4-(1H-indol-3-yl)-piperidin-1-yl]-ethyl}-piperidine-1-carboxylic acid benzyl ester], the IC50 was 0.95 µM.

Regarding `O=C(/C=C/c1cc(C(F)(F)F)cc(C(F)(F)F)c1)N1CCC(O)(C(O)CN2CCC(c3c[nH]c4ccccc34)CC2)CC1` (centres unmarked) [Compound 72], the IC50 worked out at 0.7 µM.

On to `OC(CN1CCC(c2c[nH]c3ccccc23)CC1)C1(O)CCN(C(=S)Nc2cc(Cl)cc(Cl)c2)CC1` (centres unmarked) [Compound 83, 4-hydroxy-4-{1-hydroxy-2-[4-(1H-indol-3-yl)-piperidin-1-yl]-ethyl}-piperidine-1-carbothioic acid (3,5-dichloro-phenyl)-amide], for which the IC50 came out at 0.86 µM.

Turning to `COc1ccc(C2CCN(CC(O)C3CCN(C(=O)Nc4cc(Cl)c(Cl)cc4F)CC3)CC2)cc1` (centres unmarked) [Compound 90, 4-{1-hydroxy-2-[4-(4-methoxy-phenyl)-piperidin-1-yl]-ethyl}-piperidine-1-carboxylic acid (4,5-dichloro-2-fluoro-phenyl)-amide], the inhibition at 25 µM was found to be 87%.

For the compound `COc1ccc(C2CCN(CC(O)C3CCN(C(=O)Nc4cc(F)cc(C(F)(F)F)c4)CC3)CC2)cc1` (centres unmarked) [Compound 91, 4-{1-hydroxy-2-[4-(4-methoxy-phenyl)-piperidin-1-yl]-ethyl}-piperidine-1-carboxylic acid (3-fluoro-5-trifluoromethyl-phenyl)-amide], the IC50 stood at 0.81 µM.

In the case of `COc1ccc(C2CCN(CC(O)C3(O)CCN(C(=O)/C=C/c4ccc(Cl)cc4)CC3)CC2)cc1` (centres unmarked) [Compound 92], the IC50 is 0.48 µM.

In the case of `COc1ccc(C2CCN(CC(O)C3CCN(C(=O)Nc4ccc5c(c4)OCO5)CC3)CC2)cc1` (centres unmarked) [Compound 100, 4-{1-hydroxy-2-[4-(4-methoxy-phenyl)-piperidin-1-yl]-ethyl}-piperidine-1-carboxylic acid benzo[1,3]dioxol-5-ylamide], the inhibition at 25 µM came to 50%.

As to `COc1ccc(C2CCN(CC(O)C3CCN(C(=O)Nc4ccc(C(F)(F)F)cc4Cl)CC3)CC2)cc1` (centres unmarked) [Compound 101, 4-{1-hydroxy-2-[4-(4-methoxy-phenyl)-piperidin-1-yl]-ethyl}-piperidine-1-carboxylic acid (2-chloro-4-trifluoromethyl-phenyl)-amide], the inhibition at 25 µM came out at 51%.

Consider `COc1ccc(C2CCN(CC(O)C3CCN(C(=S)Nc4cccc(C#N)c4)CC3)CC2)cc1` (centres unmarked) [Compound 104, 4-{1-hydroxy-2-[4-(4-methoxy-phenyl)-piperidin-1-yl]-ethyl}-piperidine-1-carbothioic acid (3-cyano-phenyl)-amide], for which the IC50 turned out to be 2.7 µM.

Turning to `COc1ccc(C2CCN(CC(O)C3CCN(C(=S)Nc4cc(F)cc(F)c4F)CC3)CC2)cc1` (centres unmarked) [Compound 109, 4-{1-hydroxy-2-[4-(4-methoxy-phenyl)-piperidin-1-yl]-ethyl}-piperidine-1-carbothioic acid (2,3,5-trifluoro-phenyl)-amide], the IC50 came out at 4.2 µM.

On to `COc1ccc(C2CCN(CC(O)C3CCN(C(=S)Nc4cc(OC)cc(OC)c4)CC3)CC2)cc1` (centres unmarked) [Compound 111, 4-{1-hydroxy-2-[4-(4-methoxy-phenyl)-piperidin-1-yl]-ethyl}-piperidine-1-carbothioic acid (3,5-dimethoxy-phenyl)-amide], for which the IC50 was determined as 2.6 µM.

In the case of `O=C(OCc1ccccc1)N1CCC(O)(C(O)CN2CCC(c3ccc(Cl)cc3)CC2)CC1` (centres unmarked) [Compound 112, 4-{2-[4-(4-chloro-phenyl)-piperidin-1-yl]-1-hydroxy-ethyl}-4-hydroxy-piperidine-1-carboxylic acid benzyl ester], the IC50 amounted to 3.7 µM.

For the compound `COc1ccc(C2CCN(CC(O)C3(O)CCN(C(=S)Nc4cc(OC)cc(OC)c4)CC3)CC2)cc1` (centres unmarked) [Compound 119, 4-hydroxy-4-{1-hydroxy-2-[4-(4-methoxy-phenyl)-piperidin-1-yl]-ethyl}-piperidine-1-carbothioic acid (3,5-dimethoxy-phenyl)-amide], the inhibition at 25 µM is 43%.

Consider `OC(CN1CCC(c2c[nH]c3ccc(N4CCOCC4)cc23)CC1)C1(O)CCN(c2nccc(C(F)(F)F)n2)CC1` (centres unmarked) [Compound 122, 4-{1-hydroxy-2-[4-(5-morpholin-4-yl-1H-indol-3-yl)-piperidin-1-yl]-ethyl}-1-(4-trifluoromethyl-pyrimidin-2-yl)-piperidin-4-ol], for which the inhibition at 25 µM was 51%.

As to `O=C(OCc1ccccc1)N1CCC(O)(C(O)CN2CCC(c3ccc(F)cc3)CC2)CC1` (centres unmarked) [Compound 125, 4-{2-[4-(4-fluoro-phenyl)-piperidin-1-yl]-1-hydroxy-ethyl}-4-hydroxy-piperidine-1-carboxylic acid benzyl ester], the inhibition at 25 µM is 51%.

On to `O=C(OCc1ccccc1)N1CCC(O)(C(O)CN2CCC(c3ccc(C(F)(F)F)cc3)CC2)CC1` (centres unmarked) [Compound 126, 4-hydroxy-4-{1-hydroxy-2-[4-(4-trifluoromethyl-phenyl)-piperidin-1-yl]-ethyl}-piperidine-1-carboxylic acid benzyl ester], for which the inhibition at 25 µM came to 55%.

As for `COc1ccc(C2CCN(CC(O)C3CCN(c4ccc([N+](=O)[O-])cn4)CC3)CC2)cc1` (centres unmarked) [Compound 127, 2-[4-(4-methoxy-phenyl)-piperidin-1-yl]-1-(5′-nitro-3,4,5,6-tetrahydro-2H-[1,2′]bipyridinyl-4-yl)-ethanol], the inhibition at 25 µM came out at 59%.

These data come from patent US20070197590A1, “SUBSTITUTED DIPIPERIDINE CCR2 ANTAGONISTS” (priority 2006, published 2007).
